One may read the EC50 as the concentration at which the effect is half-maximal.

Here are results for four compounds from US9200051B2, “Peptide compound” (TAKEDA PHARMACEUTICAL COMPANY LIMITED, priority 2013, dated 2015).

Molecules are shown by their SMILES. Square brackets hold non-standard residues; d marks the D form. Peptide text beside a SMILES is read from it. NMeY = CN[C@@H](Cc1ccc(O)cc1)C(=O)O; αMeF = C[C@](N)(Cc1ccccc1)C(=O)O; 4Pal = N[C@@H](Cc1ccncc1)C(=O)O; Aib = CC(C)(N)C(=O)O

What all share (type): cell-based
In experiment [1] the target is T1, human GIPR (Homo sapiens, UniProt P48546).
T1 construct: expressed in transfected cells; host or cells: CHO-K1 (CRE-LUC/CHO-K1), plasmid hGIPR/pMSRα-neo
T1 sequence (P48546 22-466): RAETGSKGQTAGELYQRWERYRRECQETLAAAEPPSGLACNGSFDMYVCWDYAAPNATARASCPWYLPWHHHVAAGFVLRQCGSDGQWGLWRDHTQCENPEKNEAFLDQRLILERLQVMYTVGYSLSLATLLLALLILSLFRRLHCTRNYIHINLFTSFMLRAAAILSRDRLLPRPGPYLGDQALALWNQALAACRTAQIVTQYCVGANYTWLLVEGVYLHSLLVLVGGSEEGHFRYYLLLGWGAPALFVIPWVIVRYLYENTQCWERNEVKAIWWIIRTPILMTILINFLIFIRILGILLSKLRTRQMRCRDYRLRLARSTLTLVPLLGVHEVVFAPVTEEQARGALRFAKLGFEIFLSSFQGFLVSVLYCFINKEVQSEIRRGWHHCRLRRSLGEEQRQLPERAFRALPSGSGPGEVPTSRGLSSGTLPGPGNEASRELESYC
Briefly: Agonist activity against human GIPR, CRE-luciferase reporter assay (rise in intracellular cAMP) in hGIPR/CRE-LUC/CHO-K1 cells. The text has this: (§1) Evaluation of agonist activity against human GIPR, human GLP-1R and human glucagon R using rise in intracellular cAMP concentration as index
The human GIPR gene having a sequence identical to the sequence of GenBank Accession No. U39231 was cloned into pMSRα-neo vector to prepare hGIPR/pMSRα-neo.
(§2) The luciferase reporter gene having an upstream cAMP response sequence was introduced to CHO-K1 cells to construct CRE-LUC/CHO-K1 cells.
The plasmid hGIPR/pMSRα-neo obtained in (1) was introduced to the CRE-LUC/CHO-K1 cells obtained in (2) to obtain transformants. Next, a cell line induced to express luciferase, i.e., hGIPR/CRE-LUC/CHO-K1 cells, were selected from the obtained transformants by the addition of GIP.
(§3) The hGIPR/CRE-LUC/CHO-K1 cells were inoculated at a cell density of 25 μL/well (5×10^4 cells/well) to a 384-well white plate (Corning), and cultured overnight in Ham F12 medium containing 10% fetal bovine serum, 100 U/mL penicillin and 100 μg/mL streptomycin in a CO2 incubator of 37° C. A medium containing a test compound was added at a concentration of 5 μL/well to the cells, and the resultant cells were incubated for 4 hours in a CO2 incubator of 37° C. to give the final concentration of 1 μM. PicaGene LT7.5 (Toyo Ink Co., Ltd.) was added thereto at a concentration of 30 μL/well, and the mixture was shaken with light shielded. After 30 minutes, the luciferase activity was measured using a plate reader Envision (PerkinElmer). The luciferase activity in the presence of 10 nM GIP was defined as 100%, and the luciferase activity from the addition of DMSO instead of the test compound was defined as 0%. The GIPR agonist activity was calculated with a rise in intracellular cAMP concentration as an index.
Background: Reporter assays use an easily measured gene product as a stand-in for the process of interest.

Experiment [2] addresses T2, human GLP-1R (Homo sapiens, UniProt P43220).
T2 construct: expressed in transfected cells; host or cells: CHO-K1, plasmids hGLP-1/pIRESneo3 and Cre-luc(Zeo)
Briefly: Agonist activity against human GLP-1R, CRE-luciferase reporter assay in hGLP-1R/CRE-luc/CHO-K1 cells.
Text: as §1
Four copies of the cAMP response sequence and the Zeocin resistance gene were introduced to pGL3(R2.2)-Basic Vector (Promega) to construct Cre-luc(Zeo) reporter plasmid.
The human GLP-1R gene having a sequence identical to the sequence of GenBank Accession No. NM_002062 was cloned into pIRESneo3 vector to prepare hGLP-1/pIRESneo3.
The Cre-luc(Zeo) obtained in (3) and the plasmid hGLP-1/pIRESneo3 obtained in (5) were introduced to CHO-K1 cells to obtain transformants. Next, a cell line induced to express luciferase, i.e., hGLP-1R/CRE-luc/CHO-K1 cells, were selected from the obtained transformants by the addition of GLP-1.
as §3
The GLP-1R agonist activity was assayed in the same way as above using the hGLP-1R/CRE-luc/CHO-K1 cells. The luciferase activity in the presence of 10 nM GLP-1 was defined as 100%, and the luciferase activity from the addition of DMSO instead of the test compound was defined as 0%. The GLP-1R agonist activity was calculated with a rise in intracellular cAMP concentration as an index.

The target of experiment [3] is T3, human glucagon R (Homo sapiens, UniProt P47871).
T3 construct: expressed in transfected cells; host or cells: CHO-K1 (CRE-LUC/CHO-K1), plasmid hGlucagonR/pMSRα-neo
Put plainly: Agonist activity against human glucagon R, CRE-luciferase reporter assay in hGlucagonR/CRE-LUC/CHO-K1 cells.
Text: as §1, §2
The human glucagon R gene having a sequence identical to the sequence of GenBank Accession No. NM_000160 was cloned into pMSRα-neo vector to prepare hGlucagonR/pMSRα-neo.
The plasmid hGlucagonR/pMSRα-neo obtained in (7) was introduced to the CRE-LUC/CHO-K1 cells obtained in (2) to obtain transformants. Next, a cell line induced to express luciferase, i.e., hGlucagonR/CRE-LUC/CHO-K1 cells, were selected from the obtained transformants by the addition of glucagon.
as §3
The glucagon R agonist activity was assayed in the same way as above using the hGlucagonR/CRE-LUC/CHO-K1 cells. The luciferase activity in the presence of 10 nM glucagon was defined as 100%, and the luciferase activity from the addition of DMSO instead of the test compound was defined as 0%. The glucagon agonist activity was calculated with a rise in intracellular cAMP concentration as an index.

T3 sequence (P47871 26-477): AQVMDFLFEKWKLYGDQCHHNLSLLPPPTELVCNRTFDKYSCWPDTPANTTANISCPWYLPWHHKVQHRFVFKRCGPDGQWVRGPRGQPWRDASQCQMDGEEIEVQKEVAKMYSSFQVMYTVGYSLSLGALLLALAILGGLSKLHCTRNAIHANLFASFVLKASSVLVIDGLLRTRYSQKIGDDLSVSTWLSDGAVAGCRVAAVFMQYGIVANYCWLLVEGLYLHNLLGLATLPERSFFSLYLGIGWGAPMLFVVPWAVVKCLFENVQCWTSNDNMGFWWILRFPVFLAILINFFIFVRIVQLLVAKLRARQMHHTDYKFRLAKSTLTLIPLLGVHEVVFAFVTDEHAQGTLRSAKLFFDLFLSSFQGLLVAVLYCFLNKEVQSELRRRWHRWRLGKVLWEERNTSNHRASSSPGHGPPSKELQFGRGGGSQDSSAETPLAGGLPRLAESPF
T2 sequence (P43220 24-463): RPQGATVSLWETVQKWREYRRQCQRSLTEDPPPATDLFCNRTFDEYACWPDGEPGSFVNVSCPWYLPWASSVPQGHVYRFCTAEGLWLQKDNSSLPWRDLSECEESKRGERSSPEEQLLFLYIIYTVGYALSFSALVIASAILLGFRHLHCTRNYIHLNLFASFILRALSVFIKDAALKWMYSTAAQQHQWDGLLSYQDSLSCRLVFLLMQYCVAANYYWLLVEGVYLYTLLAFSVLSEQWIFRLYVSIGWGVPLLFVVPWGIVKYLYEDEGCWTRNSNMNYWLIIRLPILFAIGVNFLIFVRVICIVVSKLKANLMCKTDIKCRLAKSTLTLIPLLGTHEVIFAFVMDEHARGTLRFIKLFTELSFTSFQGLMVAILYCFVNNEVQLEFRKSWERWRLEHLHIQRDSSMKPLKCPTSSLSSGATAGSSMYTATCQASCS

Consider `CC(C)C[C@H](NC(=O)[C@H](CC(C)C)NC(=O)[C@H](Cc1c[nH]c2ccccc12)NC(=O)[C@H](CCCCN)NC(=O)[C@@H](NC(=O)[C@H](Cc1ccccc1)NC(=O)[C@H](CCC(=O)O)NC(=O)[C@H](C)NC(=O)[C@H](CCC(N)=O)NC(=O)[C@H](C)NC(=O)[C@H](CCC(N)=O)NC(=O)[C@H](CCCCN)NC(=O)[C@H](CC(=O)O)NC(=O)[C@H](CC(C)C)NC(=O)C(C)(C)NC(=O)[C@H](Cc1ccncc1)NC(=O)C(C)(C)NC(=O)[C@H](Cc1ccc(O)cc1)NC(=O)[C@H](CC(=O)O)NC(=O)[C@H](CO)NC(=O)[C@@H](NC(=O)[C@](C)(Cc1ccccc1)NC(=O)[C@@H](NC(=O)CNC(=O)[C@H](CCC(=O)O)NC(=O)C(C)(C)NC(=O)[C@@H](N)Cc1ccc(O)cc1)[C@@H](C)O)[C@@H](C)O)C(C)C)C(=O)N[C@@H](CCCCN)C(=O)NCC(=O)NCC(=O)N1CCC[C@H]1C(=O)N[C@@H](CO)C(=O)N[C@@H](CO)C(=O)NCC(=O)N[C@@H](C)C(=O)N1CCC[C@H]1C(=O)N1CCC[C@H]1C(=O)N1CCC[C@H]1C(=O)N[C@@H](CO)C(=O)N[C@@H](CCCCN)C(N)=O` [Example 12] (H-Y[Aib]EGT[αMeF]TSDY[Aib][4Pal][Aib]LDKQAQAEFVKWLLKGGPSSGAPPPSK-NH2), for which the results for the half-maximal effective concentration (EC50) in experiment [1], in experiment [2] and in experiment [3] were 7.2 pM, 0.014 nM and over 1000 nM, respectively.
In the same order, the values of `CC[C@H](C)[C@H](NC(=O)C(C)(C)NC(=O)[C@H](Cc1ccc(O)cc1)NC(=O)[C@H](CC(=O)O)NC(=O)[C@H](CO)NC(=O)[C@@H](NC(=O)[C@](C)(Cc1ccccc1)NC(=O)[C@@H](NC(=O)CNC(=O)[C@H](CCC(=O)O)NC(=O)C(C)(C)NC(=O)[C@@H](N)Cc1ccc(O)cc1)[C@@H](C)O)[C@@H](C)O)C(=O)NC(C)(C)C(=O)N[C@@H](CC(C)C)C(=O)N[C@@H](CC(=O)O)C(=O)N[C@@H](CCCCN)C(=O)N[C@@H](CCC(N)=O)C(=O)N[C@@H](C)C(=O)N[C@@H](CCC(N)=O)C(=O)N[C@@H](C)C(=O)N[C@@H](CCC(=O)O)C(=O)N[C@@H](Cc1ccccc1)C(=O)N[C@H](C(=O)N[C@@H](CCCCN)C(=O)N[C@@H](Cc1c[nH]c2ccccc12)C(=O)N[C@@H](CC(C)C)C(=O)N[C@@H](CC(C)C)C(=O)N[C@@H](CCCCN)C(=O)NCC(=O)NCC(=O)N1CCC[C@H]1C(=O)N[C@@H](CO)C(=O)N[C@@H](CO)C(=O)NCC(=O)N[C@@H](C)C(=O)N1CCC[C@H]1C(=O)N1CCC[C@H]1C(=O)N1CCC[C@H]1C(=O)N[C@@H](CO)C(N)=O)C(C)C` [Example 6] (H-Y[Aib]EGT[αMeF]TSDY[Aib]I[Aib]LDKQAQAEFVKWLLKGGPSSGAPPPS-NH2) are 7.3 pM, 0.016 nM and over 1000 nM.
The corresponding values for `CC[C@H](C)[C@H](NC(=O)C(C)(C)NC(=O)[C@H](Cc1ccc(O)cc1)NC(=O)[C@H](CC(=O)O)NC(=O)[C@H](CO)NC(=O)[C@@H](NC(=O)[C@](C)(Cc1ccccc1)NC(=O)[C@@H](NC(=O)CNC(=O)[C@H](CCC(=O)O)NC(=O)C(C)(C)NC(=O)[C@@H](N)Cc1ccc(O)cc1)[C@@H](C)O)[C@@H](C)O)C(=O)N[C@@](C)(Cc1ccccc1)C(=O)N[C@@H](CC(C)C)C(=O)N[C@@H](CC(=O)O)C(=O)N[C@@H](CCCCN)C(=O)N[C@@H](CCC(N)=O)C(=O)N[C@@H](C)C(=O)N[C@@H](CCC(N)=O)C(=O)N[C@@H](C)C(=O)N[C@@H](CCC(=O)O)C(=O)N[C@@H](Cc1ccccc1)C(=O)N[C@H](C(=O)N[C@@H](CCCCN)C(=O)N[C@@H](Cc1c[nH]c2ccccc12)C(=O)N[C@@H](CC(C)C)C(=O)N[C@@H](CC(C)C)C(=O)N[C@@H](CCCCN)C(=O)NCC(=O)NCC(=O)N1CCC[C@H]1C(=O)N[C@@H](CO)C(=O)N[C@@H](CO)C(=O)NCC(=O)N[C@@H](C)C(=O)N1CCC[C@H]1C(=O)N1CCC[C@H]1C(=O)N1CCC[C@H]1C(=O)N[C@@H](CO)C(=O)N[C@@H](CCCCN)C(N)=O)C(C)C` [Example 13] (H-Y[Aib]EGT[αMeF]TSDY[Aib]I[αMeF]LDKQAQAEFVKWLLKGGPSSGAPPPSK-NH2) are 7.2 pM, 0.011 nM and over 1000 nM.
`CC[C@H](C)[C@H](NC(=O)C(C)(C)NC(=O)[C@H](Cc1ccc(O)cc1)NC(=O)[C@H](CC(=O)O)NC(=O)[C@H](CO)NC(=O)[C@@H](NC(=O)[C@](C)(Cc1ccccc1)NC(=O)[C@@H](NC(=O)CNC(=O)[C@H](CCC(=O)O)NC(=O)C(C)(C)NC(=O)[C@H](Cc1ccc(O)cc1)NC)[C@@H](C)O)[C@@H](C)O)C(=O)NC(C)(C)C(=O)N[C@@H](CC(C)C)C(=O)N[C@@H](CC(=O)O)C(=O)N[C@@H](CCCCN)C(=O)N[C@@H](CCC(N)=O)C(=O)N[C@@H](C)C(=O)N[C@@H](CCC(N)=O)C(=O)N[C@@H](C)C(=O)N[C@@H](CCC(=O)O)C(=O)N[C@@H](Cc1ccccc1)C(=O)N[C@H](C(=O)N[C@@H](CCCCN)C(=O)N[C@@H](Cc1c[nH]c2ccccc12)C(=O)N[C@@H](CC(C)C)C(=O)N[C@@H](CC(C)C)C(=O)N[C@@H](CCCCN)C(=O)NCC(=O)NCC(=O)N1CCC[C@H]1C(=O)N[C@@H](CO)C(=O)N[C@@H](CO)C(=O)NCC(=O)N[C@@H](C)C(=O)N1CCC[C@H]1C(=O)N1CCC[C@H]1C(=O)N1CCC[C@H]1C(=O)N[C@@H](CO)C(=O)N[C@@H](CCCCN)C(N)=O)C(C)C` [Example 23] (H-[NMeY][Aib]EGT[αMeF]TSDY[Aib]I[Aib]LDKQAQAEFVKWLLKGGPSSGAPPPSK-NH2): the half-maximal effective concentration (EC50) in experiment [1] is 16 pM; in experiment [2], 0.016 nM.
